# From PMC9088016, “Synthesis and biological evaluation of phosphatidylcholines with cinnamic and 3-methoxycinnamic acids with potent antiproliferative activity” (RSC Advances, 2018)
# Like-named read-outs stand apart in the source and are kept apart here.
# Key:
# HepG2 cells = assay: Antiproliferative assay in vitro (SRB), 72 h; assay type: cell-based, human; settings: 72 h exposure, mean ± SD
# Experimental: (§1) Biophenotypic B myelomonocytic leukaemia MV4-11, human lung carcinoma A549, human breast carcinoma MCF-7, human colon carcinoma LoVo, its drug resistant line LoVo/DX, liver carcinoma HepG2, and normal mouse fibroblast BALB/3T3 cells were obtained from the American Type Culture Collection (Rockville, Maryland, USA). All lines are being maintained at the Institute of Immunology and Experimental Therapy, Wrocław, Poland. All cell lines were grown in a humid atmosphere at 37 °C with 5% CO2 and were cultured in media according to the method described before.[18]
# (§2) Prior to usage, the compounds were dissolved in DMSO to the concentration of 25 or 50 mM, and subsequently diluted in the culture medium to reach the required concentrations (ranging from 5 to 625 μM).
# (§3) Twenty-four hours before addition of the tested compounds, the cells were plated in 96-well plates (Sarstedt, USA) at a density of 10^4 cells per well. All cell lines were exposed to each tested phosphatidylcholines for 72 h. Cells were also exposed to the commercially available drugs cisplatin and doxorubicin. Cell lines were also exposed to the solvent used for the tested compounds (DMSO) at concentrations corresponding to those present in the tested agents' dilutions. For adherent cells, a SRB assay was performed and an MTT assay was performed for leukaemia cells.
# (§4) The cytotoxicity assay was performed after 72 h exposure of the cultured cells to varying concentrations (from 5 to 625 μM) of the tested agents. The cells attached to the plastic were fixed in situ by gently adding 50 μL per well of cold 50% TCA (trichloroacetic acid). The plates were incubated at 4 °C for 1 h and then washed five times with tap water. The background optical density was measured in the wells filled with culture medium, without the cells. The cellular material fixed with TCA was stained with 50 μL of 0.4% sulforhodamine B (SRB) dissolved in 1% acetic acid for 30 min. Unbound dye was removed by rinsing (4×) with 1% acetic acid. The protein-bound dye was extracted with 10 mM unbuffered Tris base for determination of the optical density (at 540 nm) in a computer-interfaced 96-well microtiter plate reader Multiskan RC photometer (Labsystems, Helsinki, Finland). Each compound in the given concentration was tested in triplicate in each experiment, which was repeated 3–5 times.
# (§5) The results of the cytotoxic activity in vitro were expressed as IC50—the concentration of compound (in μM) that inhibits the proliferation rate of the tumor cells by 50% as compared to control untreated cells.
# LoVo cells = assay: Antiproliferative assay in vitro (SRB), 72 h; assay type: cell-based, human; settings: colon cancer cells, 72 h exposure, mean ± SD
# Experimental: as §1, §2, §3, §4, §5
# LoVo/DX cells = assay: Antiproliferative assay in vitro (SRB), 72 h; assay type: cell-based, human; settings: for IC50: doxorubicin-resistant colon cancer cells, SRB, 72 h exposure, mean ± SD; for Resistance index (RI): doxorubicin-resistant LoVo/DX cell line versus LoVo
# Experimental: as §1, §2, §3, §4, §5
# MCF-7 cells = assay: Antiproliferative assay in vitro (SRB), 72 h; assay type: cell-based, human; settings: 72 h exposure, mean ± SD
# Experimental: as §1, §2, §3, §4, §5
# A549 cells = assay: Antiproliferative assay in vitro (SRB), 72 h; assay type: cell-based, human; settings: 72 h exposure, mean ± SD, read-out: IC50 A-549
# Experimental: as §1, §2, §3, §4, §5
# BALB/3T3 cells = assay: Antiproliferative assay in vitro (SRB), 72 h; assay type: cell-based, mouse; settings: 72 h exposure, mean ± SD
# Experimental: as §1, §2, §3, §4, §5
# MV4-11 cells = assay: Antiproliferative assay in vitro (MTT), 72 h; assay type: cell-based, human; settings: leukaemia cells; for IC50: MTT, 72 h exposure, mean ± SD; for Fold lower IC50 than free cinnamic / 3-methoxycinnamic acid: versus corresponding free acid
# Experimental: as §1, §2, §3
# This technique was applied for the cytotoxicity screening against leukemia cells. An assay was performed after 72 h exposure to varying concentrations (from 5 to 625 μM) of the tested agents. For the last 3–4 hours of incubation. 20 μL of MTT solution was added to each well (MTT: 3-(4,5-dimethylthiazol-2-yl)-2,5-diphenyl tetrazolium bromide; stock solution: 5 mg mL^−1, Sigma, Germany). The mitochondria of viable cells reduce the pale yellow MTT to a navy blue formazan: the more viable cells are present in a well, the more MTT will be reduced to formazan. When the incubation time was completed, 80 μL of the lysing mixture was added to each well (lysing mixture: 225 mL dimethylformamide, 67.5 g sodium dodecyl sulphate, and 275 mL of distilled water). After 24 h, when formazan crystals had been dissolved, the optical densities of the samples were read with a Multiskan RC photometer at 570 nm wavelength. Each compound in a given concentration was tested in triplicate in each experiment, which was repeated 3–5 times.
# as §5
# [1] = Homo sapiens, HepG2, liver cancer cells
# [2] = Homo sapiens, MCF7, breast cancer cells
# [3] = Homo sapiens, A549, lung cancer cells
# [4] = Mus musculus, BALB/3T3, normal mice fibroblast cells
Molecule,IC50 (HepG2 cells; [1]) [µM],"IC50 (LoVo cells; Homo sapiens, LoVo) [µM]","IC50 (LoVo/DX cells; Homo sapiens, LoVo/DX) [µM]",Resistance index (RI) (LoVo/DX cells),IC50 (MCF-7 cells; [2]) [µM],IC50 (A549 cells; [3]) [µM],IC50 (BALB/3T3 cells; [4]) [µM],"IC50 (MV4-11 cells; Homo sapiens, MV4-11) [µM]",IC50 (HepG2 cells; liver cancer cells) [µM],IC50 (LoVo cells) [µM],"Ability to overcome drug resistance (LoVo/DX cells; doxorubicin-resistant LoVo/DX cell line, judged from RI)",IC50 (LoVo/DX cells) [µM],IC50 (MCF-7 cells; breast cancer cells) [µM],IC50 (A549 cells; lung cancer cells) [µM],IC50 (BALB/3T3 cells; normal mice fibroblast cells) [µM],IC50 (MV4-11 cells) [µM],Fold lower IC50 than free cinnamic / 3-methoxycinnamic acid (MV4-11 cells) [fold]
"COc1cccc(C=CC(=O)OC[C@H](COP(=O)([O-])OCC[N+](C)(C)C)OC(=O)C=Cc2cccc(OC)c2)c1 [Compound 3b, 1,2-Di(3-methoxycinnamoyl)-sn-glycero-3-phosphocholine]",83.6 ± 45.1,210 ± 22.2,32.1 ± 16.9,0.15,307 ± 12.5,286 ± 5.3,297 ± 56.4,165 ± 25.4,–,–,–,–,–,–,–,–,–
1-Cinnamoyl-2-hydroxy-sn-glycero-3-phosphocholine [Compound 9a],–,–,–,2.13,–,–,–,–,290 ± 19.4,112 ± 26.3,moderate ability to overcome drug resistance,238.2 ± 2.3,104 ± 4.4,287.1 ± 2,160 ± 45.7,44.3 ± 5.1,8
"CCCCCCCCCCCCCCCC(=O)O[C@H](COC(=O)C=Cc1ccccc1)COP(=O)([O-])OCC[N+](C)(C)C [Compound 10a, 1-Cinnamoyl-2-palmitoyl-sn-glycero-3-phosphocholine]",283 ± 5.2,63 ± 14.4,66 ± 8.7,1.05,127 ± 28.3,61.9 ± 3.7,208 ± 30.7,88.7 ± 28.9,–,–,–,–,–,–,–,–,–
"COc1cccc(C=CC(=O)O)c1 [Compound 1b, 3-methoxycinnamic acid]",> 625,233 ± 15.5,> 625,–,420 ± 56.2,> 625,506 ± 67.7,339 ± 111,–,–,–,–,–,–,–,–,–
"CCCCCCCCCCCCCCCC(=O)OC[C@H](COP(=O)([O-])OCC[N+](C)(C)C)OC(=O)C=Cc1cccc(OC)c1 [Compound 5b, 1-Palmitoyl-2-3-methoxycinnamoyl-sn-glycero-3-phosphocholine]",295 ± 11.4,70.4 ± 5.4,69.9 ± 6.3,0.99,224 ± 9.5,193 ± 27.4,257 ± 52.4,83.2 ± 4,–,–,–,–,–,–,–,–,–
1-(3-Methoxycinnamoyl)-2-hydroxy-sn-glycero-3-phosphocholine [Compound 9b],–,–,–,1.88,–,–,–,–,272 ± 33.1,85.1 ± 11.9,–,160 ± 61.7,84.1 ± 7.4,259 ± 16.7,154 ± 66.4,30.5 ± 8.2,11
